The target in one assay is human recombinant COX-1 (Homo sapiens, UniProt P23219). The experiment in a line: COX-1. It counts as biochemical. The conditions noted are these: for inhibition at 40 µg/mL: read-out: COX-1% (percentage of inhibition of COX-1); for Selectivity IC50 COX-1/IC50 COX-2: defined as IC50 COX-1/IC50 COX-2; for COX-1% (percentage of inhibition of COX-1): at 40 μg/mL.
For the next assay, the target named is T1, human recombinant COX-2 (Homo sapiens, UniProt P35354).
T1 sequence (P35354 18-604): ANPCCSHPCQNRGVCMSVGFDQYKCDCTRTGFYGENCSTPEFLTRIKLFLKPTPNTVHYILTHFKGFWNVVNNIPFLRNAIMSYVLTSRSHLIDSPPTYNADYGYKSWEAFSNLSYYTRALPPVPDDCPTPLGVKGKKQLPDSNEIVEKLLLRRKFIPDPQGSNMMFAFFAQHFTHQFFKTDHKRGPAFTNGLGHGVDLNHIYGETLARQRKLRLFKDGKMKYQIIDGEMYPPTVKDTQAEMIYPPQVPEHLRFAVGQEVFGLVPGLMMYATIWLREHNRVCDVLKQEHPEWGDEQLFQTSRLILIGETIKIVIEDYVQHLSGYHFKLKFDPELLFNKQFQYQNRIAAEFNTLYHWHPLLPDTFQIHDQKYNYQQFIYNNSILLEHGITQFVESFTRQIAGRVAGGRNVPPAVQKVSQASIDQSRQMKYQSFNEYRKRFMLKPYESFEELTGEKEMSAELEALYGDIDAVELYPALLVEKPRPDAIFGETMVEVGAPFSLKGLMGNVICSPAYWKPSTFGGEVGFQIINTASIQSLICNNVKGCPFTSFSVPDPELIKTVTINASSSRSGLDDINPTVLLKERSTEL
The assay can be described thus: COX-2. Format: biochemical. Conditions: for inhibition at 40 µg/mL: read-out: COX-2% (percentage of inhibition of COX-2); for COX-2% (percentage of inhibition of COX-2): at 40 μg/mL.

The subject of assay [1] is LPS-induced IL-6 in WI-38 fibroblast cells. The assay can be described thus: ELISA assay for IL-6 release in LPS-stimulated cells. It counts as cell-based. Conditions: for inhibition of IL-6 release (in words): LPS-stimulated WI-38 fibroblast cells; for IL-6 (pg/ml)% (percentage of inhibition of IL-6): WI-38 cells, test compounds 10 µM, LPS 0.5 µg/mL, LPS alone = 100. A general note: ELISA stands for enzyme-linked immunosorbent assay.

Assay [2] deals with LPS-induced TNF-α in WI-38 fibroblast cells. The experiment in a line: ELISA assay for TNF-α release in LPS-stimulated cells. Format: cell-based. The conditions noted are these: for inhibition of TNF-α release (in words): LPS-stimulated WI-38 fibroblast cells; for TNF-α (pg/ml)% (percentage of inhibition of TNF-α): WI-38 cells, test compounds 10 µM, LPS 0.5 µg/mL, LPS alone = 100.

Where [3] appears, read: read-out: COX-1 IC50 (μM ± SD), mean ± SD of triplicate experiments.
Where [4] appears, read: read-out: COX-2 IC50 (μM ± SD), mean ± SD of triplicate experiments.

Entries after “also recorded” stand apart in the source; their conditions may differ. Where two headings read alike, the source gives them in different places.

Sequence of human recombinant COX-1 (P23219 24-599): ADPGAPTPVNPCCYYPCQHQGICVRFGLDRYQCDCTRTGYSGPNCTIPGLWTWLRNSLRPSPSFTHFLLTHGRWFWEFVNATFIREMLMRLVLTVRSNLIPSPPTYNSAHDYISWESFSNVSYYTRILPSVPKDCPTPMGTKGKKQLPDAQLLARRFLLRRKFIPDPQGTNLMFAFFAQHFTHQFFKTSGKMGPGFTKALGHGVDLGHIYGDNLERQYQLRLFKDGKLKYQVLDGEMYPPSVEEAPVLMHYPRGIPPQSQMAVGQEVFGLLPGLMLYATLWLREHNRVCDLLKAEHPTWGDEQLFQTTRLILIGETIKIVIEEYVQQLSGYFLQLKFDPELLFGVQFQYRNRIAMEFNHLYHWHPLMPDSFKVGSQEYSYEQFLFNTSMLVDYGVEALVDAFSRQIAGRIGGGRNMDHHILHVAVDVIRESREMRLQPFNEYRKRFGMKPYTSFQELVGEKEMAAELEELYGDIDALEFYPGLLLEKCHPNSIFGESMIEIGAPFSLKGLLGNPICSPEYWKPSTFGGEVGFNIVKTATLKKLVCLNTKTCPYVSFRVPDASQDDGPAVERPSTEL

As to `O=C(c1ccc(F)cc1)C1C(c2cc3ccccc3o2)C2C3CCCCC3CN2[C@@]12C(=O)Nc1ccc(Cl)cc12` (stereo partly drawn) [Compound 5d, (3S)-1'-(benzofuran-2-yl)-5-chloro-2'-(4-fluorobenzoyl)-1',2',5',5a',6',7',8',9',9a',9b'-decahydrospiro-[indoline-3,3'-pyrrolo[2,1-a]isoindol]-2-one], the inhibition at 40 µg/mL worked out at 19.8% at human recombinant COX-1 and 7.77% at human recombinant COX-2. For the same compound, the “inhibition of IL-6 release (in words)” value in assay [1] is recorded as “markedly inhibited; also recorded: most effective; also recorded: high potency”. Moreover, the “inhibition of TNF-α release (in words)” value in assay [2] is given as “markedly inhibited; also recorded: most effective; also recorded: high potency”.
As to `O=C(c1ccccc1)C1C(c2cc3ccccc3o2)C2CSCN2[C@@]12C(=O)Nc1ccc(Cl)cc12` (stereo partly drawn) [Compound 5a, (3S)-7'-(Benzofuran-2-yl)-6'-benzoyl-5-chloro-1',6',7',7a'-tetrahydro-3'H-spiro[indoline-3,5'-pyrrolo[1,2-c]thiazol]-2-one], on human recombinant COX-1, the IC50 worked out at 20.4 ± 0.55 µM, the “Selectivity IC50 COX-1/IC50 COX-2” value came to 23% and the inhibition at 40 µg/mL was 57.4%. At human recombinant COX-2, the IC50 is 88.1 ± 1.78 µM and the inhibition at 40 µg/mL was found to be 11.2%.
As for `O=C(c1ccc(Br)cc1)C1C(c2cc3ccccc3o2)C2C3CCCCC3CN2[C@@]12C(=O)Nc1ccc(Br)cc12` (stereo partly drawn) [Compound 5g, (3S)-1'-(Benzofuran-2-yl)-5-bromo-2'-(4-bromobenzoyl)-1',2',5',5a',6',7',8',9',9a',9b'-decahydrospiro-[indoline-3,3'-pyrrolo[2,1-a]isoindol]-2-one], the inhibition at 40 µg/mL on human recombinant COX-1 turned out to be 19.8%; on human recombinant COX-2, 2.76%. Also, the “inhibition of IL-6 release (in words)” value in assay [1] is “markedly inhibited; also recorded: most effective; also recorded: high potency”. In addition, the “inhibition of TNF-α release (in words)” value in assay [2] was “markedly inhibited; also recorded: most effective; also recorded: high potency”.
As to `Cc1ccc(-c2cc(C(F)(F)F)nn2-c2ccc(S(N)(=O)=O)cc2)cc1` [Celecoxib, reference compound], in assay [1] (10 µM), the “IL-6 (pg/ml)% (percentage of inhibition of IL-6)” value stood at 24.77%.
Turning to `O=C(c1ccc(F)cc1)C1C(c2cc3ccccc3o2)C2C3CCCCC3CN2[C@@]12C(=O)Nc1ccc(Br)cc12` (stereo partly drawn) [Compound 5e, (3S)-1'-(Benzofuran-2-yl)-5-bromo-2'-(4-fluorobenzoyl)-1',2',5',5a',6',7',8',9',9a',9b'-decahydrospiro-[indoline-3,3'-pyrrolo[2,1-a]isoindol]-2-one], the values for the inhibition at 40 µg/mL at human recombinant COX-1 and on human recombinant COX-2 were 9.43% and 1.8%, respectively. Besides, the “inhibition of IL-6 release (in words)” value in assay [1] is “markedly inhibited; also recorded: most effective; also recorded: high potency”. The “inhibition of TNF-α release (in words)” value in assay [2] is given as “markedly inhibited; also recorded: most effective; also recorded: high potency”.
Take `O=C(c1ccc(Br)cc1)C1C(c2cc3ccccc3o2)C2C3CCCCC3CN2[C@@]12C(=O)Nc1ccc(Cl)cc12` (stereo partly drawn) [Compound 5f, (3S)-1'-(Benzofuran-2-yl)-2'-(4-bromobenzoyl)-5-chloro-1',2',5',5a',6',7',8',9',9a',9b'-decahydrospiro-[indoline-3,3'-pyrrolo[2,1-a]isoindol]-2-one]: the inhibition at 40 µg/mL at human recombinant COX-1 was found to be 32.1%; on human recombinant COX-2, 5.92%. Also, the “inhibition of IL-6 release (in words)” value in assay [1] is on record as “markedly inhibited; also recorded: most effective; also recorded: high potency”. Besides, the “inhibition of TNF-α release (in words)” value in assay [2] is recorded as “markedly inhibited; also recorded: most effective; also recorded: high potency”.
Consider `O=C(c1ccc(Br)cc1)C1C(c2cc3ccccc3o2)C2CSCN2[C@@]12C(=O)Nc1ccc(Br)cc12` (stereo partly drawn) [Compound 5h, (3S)-7'-(Benzofuran-2-yl)-5-bromo-6'-(4-bromobenzoyl)-1',6',7',7a'-tetrahydro-3'H-spiro[indoline-3,5'-pyrrolo[1,2-c]thiazol]-2-one], for which, at human recombinant COX-1, the IC50 was determined as 35.7 ± 0.51 µM, the “Selectivity IC50 COX-1/IC50 COX-2” value worked out at 42% and the inhibition at 40 µg/mL came to 41.7%. In addition, on human recombinant COX-2, the IC50 was determined as 84.7 ± 1.16 µM and the inhibition at 40 µg/mL is 9.8%.
For `O=C(c1ccc(Br)cc1)C1C(c2cc3ccccc3o2)C2CSCN2[C@@]12C(=O)Nc1ccc(Cl)cc12` (stereo partly drawn) [Compound 5i, (3S)-7'-(Benzofuran-2-yl)-6'-(4-bromobenzoyl)-5-chloro-1',6',7',7a'-tetrahydro-3'H-spiro[indoline-3,5'-pyrrolo[1,2-c]thiazol]-2-one] the same measures were 29.55 ± 0.19 µM, 41%, 44.5%, 71.2 ± 1.29 µM and 17.9%.
In the case of `O=C(c1ccc(F)cc1)C1C(c2cc3ccccc3o2)C2CSCN2[C@@]12C(=O)Nc1ccc(Cl)cc12` (stereo partly drawn) [Compound 5c, (3S)-7'-(Benzofuran-2-yl)-5-chloro-6'-(4-fluorobenzoyl)-1',6',7',7a'-tetrahydro-3'H-spiro[indoline-3,5'-pyrrolo[1,2-c]thiazol]-2-one], on human recombinant COX-1, the IC50 was determined as 37 ± 1.54 µM, the “Selectivity IC50 COX-1/IC50 COX-2” value was found to be 49% and the inhibition at 40 µg/mL worked out at 40.8%. On human recombinant COX-2, the IC50 is 76.2 ± 1.46 µM and the inhibition at 40 µg/mL is 8.33%.
With `CC(=O)O[C@@H]1CC[C@@]2(C)[C@@H](CC[C@]3(C)[C@@H]2CC=C2[C@@H]4CC(C)(C)CC[C@]4(C)CC[C@]23C)[C@@]1(C)C(=O)O` [Acetyl-α-boswellic acid, reference compound], at human recombinant COX-1, the “COX-1% (percentage of inhibition of COX-1)” value is listed as 69.81% and the “Selectivity IC50 COX-1/IC50 COX-2” value came to 10%. Further, the IC50 on human recombinant COX-1 (setting [3]) stood at 10.1 ± 0.17 µM. The “COX-2% (percentage of inhibition of COX-2)” value on human recombinant COX-2 is 7.98%. Also, the IC50 on human recombinant COX-2 (setting [4]) is greater than 100 µM. For the same compound, the “IL-6 (pg/ml)% (percentage of inhibition of IL-6)” value in assay [1] is reported as 15.73%. For the same compound, the “TNF-α (pg/ml)% (percentage of inhibition of TNF-α)” value in assay [2] came to 14.87%.
Consider `COc1ccc2c(c1)c(CC(=O)O)c(C)n2C(=O)c1ccc(Cl)cc1` [Indomethacin, reference compound], for which the inhibition at 40 µg/mL at human recombinant COX-1 came out at 87.3%.
With `CC(=O)O[C@@H]1CC[C@@]2(C)[C@@H](CC[C@]3(C)[C@@H]2C(=O)C=C2[C@@H]4[C@@H](C)[C@H](C)CC[C@]4(C)CC[C@]23C)[C@@]1(C)C(=O)O` [Acetyl-keto boswellic acid, reference compound], at human recombinant COX-1, the “COX-1% (percentage of inhibition of COX-1)” value is 71.42% and the “Selectivity IC50 COX-1/IC50 COX-2” value is 10%. For the same compound, the IC50 at human recombinant COX-1 (setting [3]) was found to be 7.84 ± 0.13 µM. In addition, the “COX-2% (percentage of inhibition of COX-2)” value on human recombinant COX-2 came out at 19.87%. In addition, at human recombinant COX-2 (setting [4]), the IC50 was 82.52 ± 0.62 µM. In assay [1], the “IL-6 (pg/ml)% (percentage of inhibition of IL-6)” value is reported as 7.31%. In addition, the “TNF-α (pg/ml)% (percentage of inhibition of TNF-α)” value in assay [2] is listed as 18.76%.
Regarding `C[C@H]1[C@H](C)CC[C@]2(C)CC[C@]3(C)C(=CC[C@@H]4[C@@]5(C)CC[C@@H](O)[C@](C)(C(=O)O)[C@@H]5CC[C@]43C)[C@H]12` [β-Boswellic acid, reference compound], at human recombinant COX-1, the IC50 stood at 18.1 ± 0.42 µM, the “Selectivity IC50 COX-1/IC50 COX-2” value was 18% and the inhibition at 40 µg/mL was 64.8%. At human recombinant COX-2, the IC50 is greater than 100 µM and the inhibition at 40 µg/mL came to 7.66%.
As for `O=C(c1ccc(C(F)(F)F)cc1)C1C(c2cc3ccccc3o2)C2CSCN2[C@@]12C(=O)Nc1ccc(Cl)cc12` (stereo partly drawn) [Compound 5l, (3S)-7'-(Benzofuran-2-yl)-5-chloro-6'-(4-(trifluoromethyl)benzoyl)-1',6',7',7a'-tetrahydro-3'H-spiro-[indoline-3,5'-pyrrolo[1,2-c]thiazol]-2-one], on human recombinant COX-1, the IC50 was 31.25 ± 0.24 µM and the inhibition at 40 µg/mL was 47.7%. Also, at human recombinant COX-2, the IC50 was 58.8 ± 1.58 µM and the inhibition at 40 µg/mL turned out to be 19.8%.
In the case of `CC(=O)O[C@@H]1CC[C@@]2(C)[C@@H](CC[C@]3(C)[C@@H]2CC=C2[C@@H]4[C@@H](C)[C@H](C)CC[C@]4(C)CC[C@]23C)[C@@]1(C)C(=O)O` [Acetyl-β-boswellic acid, reference compound], on human recombinant COX-1, the “COX-1% (percentage of inhibition of COX-1)” value amounted to 75.73% and the “Selectivity IC50 COX-1/IC50 COX-2” value came out at 11%. The IC50 at human recombinant COX-1 (setting [3]) stood at 8.16 ± 0.1 µM. For the same compound, on human recombinant COX-2, the “COX-2% (percentage of inhibition of COX-2)” value came to 14.87%. The IC50 at human recombinant COX-2 (setting [4]) came to 72.52 ± 0.51 µM. Also, the “IL-6 (pg/ml)% (percentage of inhibition of IL-6)” value in assay [1] is recorded as 11.42%. The “TNF-α (pg/ml)% (percentage of inhibition of TNF-α)” value in assay [2] stood at 19.87%.
On to `O=C(c1ccc(Cl)cc1)C1C(c2cc3ccccc3o2)C2CSCN2[C@@]12C(=O)Nc1ccc(Cl)cc12` (stereo partly drawn) [Compound 5p, (3S)-7'-(Benzofuran-2-yl)-5-chloro-6'-(4-chlorobenzoyl)-1',6',7',7a'-tetrahydro-3'H-spiro[indoline-3,5'-pyrrolo[1,2-c]thiazol]-2-one], for which, at human recombinant COX-1, the IC50 is 38.2 ± 0.96 µM, the “Selectivity IC50 COX-1/IC50 COX-2” value is listed as 45% and the inhibition at 40 µg/mL was found to be 52.8%. Besides, at human recombinant COX-2, the IC50 came out at 85.7 ± 1.51 µM and the inhibition at 40 µg/mL is 9.98%.

A word on the inhibition: it is the percentage by which the read-out fell short of the control. As a reminder, the IC50 is the point on the concentration scale where inhibition reaches its midpoint.

(Values after publication PMC7182988 (Saudi Journal of Biological Sciences, 2020).)
